According to US5530126A, “Process for the preparation of substituted 6-(pyrazol-3yl)-1,4-benzoxazin-3-ones” (Monsanto Company, priority 1994, dated 1996):

Assays:
Format in all cases: in vivo
Annual bluegrass [1] = test: Pre-emergence herbicide test; conditions: read-out: % plant inhibition (Anbg); for inhibition at 1120 g/ha: 1.12 kg/ha; for inhibition at 11210 g/ha: 11.21 kg/ha
Procedure, shortened: (§1)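 In this greenhouse test, seeds on compacted topsoil receive the active ingredient in an organic solvent or aqueous carrier, are covered with untreated soil and watered from below; percent inhibition is scored approximately 11 days later.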

Barnyardgrass [2] = test: Pre-emergence herbicide test; conditions: Echinochloa crus-galli, read-out: % plant inhibition (Bygr); for inhibition at 1120 g/ha: 1.12 kg/ha; for inhibition at 11210 g/ha: 11.21 kg/ha
Procedure, shortened: as §1

Cocklebur [3] = test: Pre-emergence herbicide test; conditions: Xanthium strumarium, read-out: % plant inhibition (Cobu); for inhibition at 1120 g/ha: 1.12 kg/ha; for inhibition at 11210 g/ha: 11.21 kg/ha
Procedure, shortened: as §1

Downy Brome [4] = test: Pre-emergence herbicide test; conditions: Bromus tectorum, read-out: % plant inhibition (Dobr); for inhibition at 1120 g/ha: 1.12 kg/ha; for inhibition at 11210 g/ha: 11.21 kg/ha
Procedure, shortened: as §1

Indian Mustard [5] = test: Pre-emergence herbicide test; conditions: Brassica juncea, read-out: % plant inhibition (Inmu); for inhibition at 1120 g/ha: 1.12 kg/ha; for inhibition at 11210 g/ha: 11.21 kg/ha
Procedure, shortened: as §1

Morningglory [6] = test: Pre-emergence herbicide test; conditions: Ipomoea, read-out: % plant inhibition (Mogl); for inhibition at 1120 g/ha: 1.12 kg/ha; for inhibition at 11210 g/ha: 11.21 kg/ha
Procedure, shortened: as §1

Seedling johnsongrass [7] = test: Pre-emergence herbicide test; conditions: Sorghum halepense, read-out: % plant inhibition (Sejg); for inhibition at 1120 g/ha: 1.12 kg/ha; for inhibition at 11210 g/ha: 11.21 kg/ha
Procedure, shortened: as §1

Velvetleaf [8] = test: Pre-emergence herbicide test; conditions: Abutilon theophrasti, read-out: % plant inhibition (Vele); for inhibition at 1120 g/ha: 1.12 kg/ha; for inhibition at 11210 g/ha: 11.21 kg/ha
Procedure, shortened: as §1

Wild buckwheat [9] = test: Pre-emergence herbicide test; conditions: Fallopia convolvulus, read-out: % plant inhibition (Wibw); for inhibition at 1120 g/ha: 1.12 kg/ha; for inhibition at 11210 g/ha: 11.21 kg/ha
Procedure, shortened: as §1

Yellow nutsedge [10] = test: Pre-emergence herbicide test; conditions: Cyperus, read-out: % plant inhibition (Yens); for inhibition at 1120 g/ha: 1.12 kg/ha; for inhibition at 11210 g/ha: 11.21 kg/ha
Procedure, shortened: as §1

Annual bluegrass [11] = test: Post-emergence herbicide test; conditions: read-out: % plant inhibition (Anbg); for inhibition at 1120 g/ha: 1.12 kg/ha; for inhibition at 11210 g/ha: 11.21 kg/ha
Procedure, shortened: (§2)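 Foliar spray trial in greenhouse pans: two- to three-week-old plants treated at 200 gallons/acre by atomizer, spray containing about 0.4% emulsifier. Percent inhibition compared with untreated controls was recorded around day 11.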

Barnyardgrass [12] = test: Post-emergence herbicide test; conditions: Echinochloa crus-galli, read-out: % plant inhibition (Bygr); for inhibition at 1120 g/ha: 1.12 kg/ha; for inhibition at 11210 g/ha: 11.21 kg/ha
Procedure, shortened: as §2

Cocklebur [13] = test: Post-emergence herbicide test; conditions: Xanthium strumarium, read-out: % plant inhibition (Cobu); for inhibition at 1120 g/ha: 1.12 kg/ha; for inhibition at 11210 g/ha: 11.21 kg/ha
Procedure, shortened: as §2

Downy Brome [14] = test: Post-emergence herbicide test; conditions: Bromus tectorum, read-out: % plant inhibition (Dobr); for inhibition at 1120 g/ha: 1.12 kg/ha; for inhibition at 11210 g/ha: 11.21 kg/ha
Procedure, shortened: as §2

Indian Mustard [15] = test: Post-emergence herbicide test; conditions: Brassica juncea, read-out: % plant inhibition (Inmu); for inhibition at 1120 g/ha: 1.12 kg/ha; for inhibition at 11210 g/ha: 11.21 kg/ha
Procedure, shortened: as §2

Morningglory [16] = test: Post-emergence herbicide test; conditions: Ipomoea, read-out: % plant inhibition (Mogl); for inhibition at 1120 g/ha: 1.12 kg/ha; for inhibition at 11210 g/ha: 11.21 kg/ha
Procedure, shortened: as §2

Seedling johnsongrass [17] = test: Post-emergence herbicide test; conditions: Sorghum halepense, read-out: % plant inhibition (Sejg); for inhibition at 1120 g/ha: 1.12 kg/ha; for inhibition at 11210 g/ha: 11.21 kg/ha
Procedure, shortened: as §2

Velvetleaf [18] = test: Post-emergence herbicide test; conditions: Abutilon theophrasti, read-out: % plant inhibition (Vele); for inhibition at 1120 g/ha: 1.12 kg/ha; for inhibition at 11210 g/ha: 11.21 kg/ha
Procedure, shortened: as §2

Wild buckwheat [19] = test: Post-emergence herbicide test; conditions: Fallopia convolvulus, read-out: % plant inhibition (Wibw); for inhibition at 1120 g/ha: 1.12 kg/ha; for inhibition at 11210 g/ha: 11.21 kg/ha
Procedure, shortened: as §2

Yellow nutsedge [20] = test: Post-emergence herbicide test; conditions: Cyperus, read-out: % plant inhibition (Yens); for inhibition at 1120 g/ha: 1.12 kg/ha; for inhibition at 11210 g/ha: 11.21 kg/ha
Procedure, shortened: as §2

Row | SMILES | inhibition at 1120 g/ha (Annual bluegrass [1]) | inhibition at 1120 g/ha (Barnyardgrass [2]) | inhibition at 1120 g/ha (Cocklebur [3]) | inhibition at 1120 g/ha (Downy Brome [4]) | inhibition at 1120 g/ha (Indian Mustard [5]) | inhibition at 1120 g/ha (Morningglory [6]) | inhibition at 1120 g/ha (Seedling johnsongrass [7]) | inhibition at 1120 g/ha (Velvetleaf [8]) | inhibition at 1120 g/ha (Wild buckwheat [9]) | inhibition at 1120 g/ha (Yellow nutsedge [10]) | inhibition at 1120 g/ha (Annual bluegrass [11]) | inhibition at 1120 g/ha (Barnyardgrass [12]) | inhibition at 1120 g/ha (Cocklebur [13]) | inhibition at 1120 g/ha (Downy Brome [14]) | inhibition at 1120 g/ha (Indian Mustard [15]) | inhibition at 1120 g/ha (Morningglory [16]) | inhibition at 1120 g/ha (Seedling johnsongrass [17]) | inhibition at 1120 g/ha (Velvetleaf [18]) | inhibition at 1120 g/ha (Wild buckwheat [19]) | inhibition at 1120 g/ha (Yellow nutsedge [20]) | further results
1 | C#CCOCc1cc(-c2nn(C)c(C(F)(F)F)c2Cl)c(F)cc1Cl [Compound 120] | 70% | 80% | 30% | 70% | 90% | 80% | 80% | 100% | 100% | 10% | 40% | 80% | 90% | 50% | 70% | 100% | 80% | 100% | 100% | 10% | –
2 | CC(=O)OCc1cc(-c2nn(C)c(C(F)(F)F)c2Cl)c(F)cc1Cl [Compound 121] | – | – | – | – | – | – | – | – | – | – | – | – | – | – | – | – | – | – | – | – | inhibition at 11210 g/ha (Annual bluegrass [1]): 100%; inhibition at 11210 g/ha (Barnyardgrass [2]): 100%; inhibition at 11210 g/ha (Cocklebur [3]): 60%; inhibition at 11210 g/ha (Downy Brome [4]): 70%; inhibition at 11210 g/ha (Indian Mustard [5]): 100%; inhibition at 11210 g/ha (Morningglory [6]): 100%; inhibition at 11210 g/ha (Seedling johnsongrass [7]): 80%; inhibition at 11210 g/ha (Velvetleaf [8]): 100%; inhibition at 11210 g/ha (Wild buckwheat [9]): 100%; inhibition at 11210 g/ha (Yellow nutsedge [10]): 70%; inhibition at 11210 g/ha (Annual bluegrass [11]): 40%; inhibition at 11210 g/ha (Barnyardgrass [12]): 100%; inhibition at 11210 g/ha (Cocklebur [13]): 90%; inhibition at 11210 g/ha (Downy Brome [14]): 90%; inhibition at 11210 g/ha (Indian Mustard [15]): 90%; inhibition at 11210 g/ha (Morningglory [16]): 100%; inhibition at 11210 g/ha (Seedling johnsongrass [17]): 90%; inhibition at 11210 g/ha (Velvetleaf [18]): 100%; inhibition at 11210 g/ha (Wild buckwheat [19]): 100%; inhibition at 11210 g/ha (Yellow nutsedge [20]): 20%
3 | Cn1nc(-c2cc(CO)c(Cl)cc2F)c(Cl)c1C(F)(F)F [Compound 122, 2-chloro-5-[4-chloro-1-methyl-5-(trifluoromethyl)-1H-pyrazol-3-yl]-4-fluorobenzenemethanol] | 20% | 80% | 40% | 20% | 100% | 80% | 40% | 100% | 70% | 0% | 20% | 70% | 60% | 20% | 50% | 80% | 70% | 100% | 90% | 20% | –
4 | CCOC(=O)CSCc1cc(-c2nn(C)c(C(F)(F)F)c2Cl)c(F)cc1Cl [Compound 123] | 0% | 30% | 50% | 70% | 80% | 100% | 40% | 100% | 90% | 30% | 0% | 50% | 70% | 60% | 30% | 100% | 50% | 100% | 90% | 20% | –
5 | Cc1cc(-c2nn(C)c(C(F)(F)F)c2Cl)c(F)cc1Cl [Compound 124] | – | – | – | – | – | – | – | – | – | – | – | – | – | – | – | – | – | – | – | – | inhibition at 11210 g/ha (Annual bluegrass [1]): 100%; inhibition at 11210 g/ha (Barnyardgrass [2]): 100%; inhibition at 11210 g/ha (Cocklebur [3]): 100%; inhibition at 11210 g/ha (Downy Brome [4]): 100%; inhibition at 11210 g/ha (Indian Mustard [5]): 100%; inhibition at 11210 g/ha (Morningglory [6]): 100%; inhibition at 11210 g/ha (Seedling johnsongrass [7]): 100%; inhibition at 11210 g/ha (Velvetleaf [8]): 100%; inhibition at 11210 g/ha (Wild buckwheat [9]): 100%; inhibition at 11210 g/ha (Yellow nutsedge [10]): 20%; inhibition at 11210 g/ha (Annual bluegrass [11]): 70%; inhibition at 11210 g/ha (Barnyardgrass [12]): 90%; inhibition at 11210 g/ha (Cocklebur [13]): 70%; inhibition at 11210 g/ha (Downy Brome [14]): 50%; inhibition at 11210 g/ha (Indian Mustard [15]): 90%; inhibition at 11210 g/ha (Morningglory [16]): 100%; inhibition at 11210 g/ha (Seedling johnsongrass [17]): 100%; inhibition at 11210 g/ha (Velvetleaf [18]): 100%; inhibition at 11210 g/ha (Wild buckwheat [19]): 100%; inhibition at 11210 g/ha (Yellow nutsedge [20]): 20%
6 | Cc1cc(-c2nn(C)c(C(F)(F)F)c2Br)c(F)cc1Cl [Compound 125] | 100% | 100% | 30% | 90% | 100% | 90% | 100% | 100% | 100% | 0% | 20% | 0% | 40% | 0% | 30% | 30% | 0% | 100% | 100% | 0% | –
7 | Cc1cc(-c2nn(C)c(C(F)F)c2Cl)c(F)cc1Cl [Compound 126] | 100% | 100% | 50% | 100% | 100% | 100% | 100% | 100% | 100% | 0% | 40% | 50% | 30% | 0% | 40% | 60% | 30% | 90% | 80% | 10% | –
8 | CCOC(=O)C(C)=Cc1cc(-c2nn(C)c(C(F)(F)F)c2Cl)c(F)cc1Cl [Compound 127] | 0% | 30% | 20% | 0% | 90% | 70% | 20% | 100% | 100% | 0% | 20% | 60% | 100% | 80% | 100% | 100% | 100% | 100% | 100% | 20% | –
9 | COC(=O)C=Cc1cc(-c2nn(C)c(C(F)(F)F)c2Cl)c(F)cc1Cl [Compound 128, 3-(2-chloro-5-(4-chloro-1-methyl-5-(trifluoromethyl)-1H-pyrazol-3-yl)-4-fluorophenyl)propenoic acid, methyl ester] | 0% | 0% | 70% | 0% | 70% | 80% | 30% | 100% | 100% | 0% | 30% | 50% | 100% | 100% | 90% | 100% | 100% | 100% | 100% | 20% | –
10 | CCOC(=O)CON=Cc1cc(-c2nn(C)c(C(F)(F)F)c2Cl)c(F)cc1Cl [Compound 129] | 0% | 20% | 90% | 40% | 90% | 100% | 60% | 100% | 100% | 0% | 40% | 80% | 100% | 80% | 90% | 90% | 90% | 100% | 100% | 30% | –
